In paper PMC11042424, “Development of a First-in-Class RIPK1 Degrader to Enhance Antitumor Immunity” (Research Square, 2024):

Experiments:
[1] = target: T1, nLuc-RIPK1 fusion protein (Homo sapiens, UniProt Q13546); test: NanoBRET based in-cell RIPK1 target engagement
T1 construct: expressed in transfected cells
T1 sequence (Q13546 1-671): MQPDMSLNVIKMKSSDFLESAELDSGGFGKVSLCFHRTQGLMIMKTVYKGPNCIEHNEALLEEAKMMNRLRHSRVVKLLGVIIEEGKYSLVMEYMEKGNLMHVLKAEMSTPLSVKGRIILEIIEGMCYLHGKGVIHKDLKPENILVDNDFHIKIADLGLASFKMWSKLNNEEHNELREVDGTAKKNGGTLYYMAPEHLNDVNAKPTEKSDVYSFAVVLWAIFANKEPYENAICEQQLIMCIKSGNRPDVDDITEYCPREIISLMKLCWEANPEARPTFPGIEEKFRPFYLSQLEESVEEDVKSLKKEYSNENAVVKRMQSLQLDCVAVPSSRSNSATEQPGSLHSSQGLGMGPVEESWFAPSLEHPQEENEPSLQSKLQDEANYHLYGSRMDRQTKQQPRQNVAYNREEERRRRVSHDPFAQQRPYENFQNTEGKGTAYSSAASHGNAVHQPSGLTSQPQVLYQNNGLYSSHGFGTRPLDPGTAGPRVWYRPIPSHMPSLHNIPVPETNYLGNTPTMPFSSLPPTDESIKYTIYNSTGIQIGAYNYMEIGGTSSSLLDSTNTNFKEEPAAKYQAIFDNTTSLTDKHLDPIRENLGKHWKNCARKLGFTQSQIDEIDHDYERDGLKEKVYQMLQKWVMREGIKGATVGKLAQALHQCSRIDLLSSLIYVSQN
Procedure: Figure 2 LD4172, a RIPK1 PROTAC, induces potent and highly specific degradation of RIPK1 in a panel of cell lines. A, Chemical structures of RIPK1 PROTAC, LD4172, and its negative control, LD4172-NC. […] B, Quantification of RIPK1 levels in both Jurkat and B16F10 cells treated with LD4172 at indicated concentrations for 24 h, followed by Western blotting. C, DC50 and Dmax of LD4172 in various human and mouse cell lines. DC50, the drug concentration causing 50% protein degradation; Dmax, the maximum level of protein degradation. D, RIPK1 degradation kinetics induced by LD4172 treatment (1 μM) and resynthesis kinetics upon washout of LD4172 in both Jurkat and B16F10 cells. E, Quantification of D. The degradation half-life of RIPK1 induced by LD4172 (1 μM) is <2 h in Jurkat and B16F10 cells. […] F, NanoBRET based in-cell RIPK1 target engagement. HEK293 cells were transfected with a plasmid expressing nLuc-RIPK1 fusion protein for 24 h, followed by incubating with a RIPK1 NanoBRET tracer (500 nM) and different concentrations of LD4172 and LD4172-NC (n=3). G, Time-resolved fluorescence resonance energy transfer (TR-FRET) based biochemical binding assay for RIPK1. GST-tagged human RIPK1 (1 nM), Tb-labeled anti-GST antibody (0.3 nM), a RIPK1 TR-FRET tracer (350 nM) and different concentrations of LD4172 (n=3) were incubated for 2 hours, followed by TR-FRET measurements with an excitation wavelength at 340 nm and emission wavelengths at 495 and 520 nm. H, NanoBRET based in-cell assay for ternary complex formation. HEK293T cells were co-transfected with nLuc-RIPK1 and VHL-HaloTag plasmids for 24 h, followed by treatment with indicated concentrations of LD4172 or LD4172-NC (n=3). I, LD4172 induced RIPK1 degradation depends on ternary complex formation, neddylation and proteasome activity. Representative immunoblots of RIPK1 in both Jurkat and B16F10 cells. Cells were treated with RIPK1 inhibitor (T2I), VHL ligand, a neddylation inhibitor (MLN4924) or a proteasome inhibitor (Carfilzomib) at indicated concentrations for 4 hours, followed by LD4172 treatment for 4 hours. J, Proteome profiling of LD4172 induced protein degradation. MDA-MB- 231 cells were treated with LD4172 (200 nM) or LD4172-NC (200 nM) for 6 h (n=3). In total, ~10,000 proteins were quantified in the proteomics experiment. […] Blue dots represent kinases that are inhibited by the warhead of LD4172 but not degraded by LD4172.
To elucidate the formation of a binary complex during RIPK1 degradation, we developed a competitive NanoBRET (Nano-Bioluminescence Resonance Energy transfer)-based target engagement (TE) assay to quantify the binding between RIPK1 and LD4172 in cells[12],[13]. First, we developed a RIPK1 tracer by conjugating the LD4172 warhead T2I with a BODIPY-590 fluorescent dye, dubbed T2–590 (refer to Supporting Information for details). The dissociation equilibrium constant (Kd) between the tracer and RIPK1 was determined to be 0.5 μM by titrating the tracer in HEK293T cells expressing a nLuc-RIPK1 fusion protein. […] This is usually expected, considering that the large molecular weight of LD4172 may lead to poor cellular permeability.

RIPK1 and VHL = target: T2, RIPK1 and VHL (Homo sapiens, UniProt P40337+Q13546); test: NanoBRET live-cell ternary complex assay; assay type: cell-based; details: HEK293 cells co-transfected with nLuc-RIPK1 and VHL-Halo
T2 construct: Addgene backbone 87075 (RIPK1 vector, made in house) N273A; host or cells: HEK293T
Procedure: Figure 2 LD4172, a RIPK1 PROTAC, induces potent and highly specific degradation of RIPK1 in a panel of cell lines. A, Chemical structures of RIPK1 PROTAC, LD4172, and its negative control, LD4172-NC. […] B, Quantification of RIPK1 levels in both Jurkat and B16F10 cells treated with LD4172 at indicated concentrations for 24 h, followed by Western blotting. C, DC50 and Dmax of LD4172 in various human and mouse cell lines. DC50, the drug concentration causing 50% protein degradation; Dmax, the maximum level of protein degradation. D, RIPK1 degradation kinetics induced by LD4172 treatment (1 μM) and resynthesis kinetics upon washout of LD4172 in both Jurkat and B16F10 cells. […] G, Time-resolved fluorescence resonance energy transfer (TR-FRET) based biochemical binding assay for RIPK1. […] In total, ~10,000 proteins were quantified in the proteomics experiment. […]
Human RIPK1 cDNA insert was cloned into pLenti6.2-ccdB-nLuc plasmid (87075, Addgene, a kind gift from Taipale Lab) using gateway cloning kit (11791020, Thermo) and standard protocol to obtain pLenti6.2-RIPK1-nLuc fusion vector. […] Immediately before reading the plate, prepare 4x concentrated NanoGlo nLuc substrate (N157, Promega) was prepared by diluting the stock into Opti-MEM 1,000-fold, and the NanoGlo substrate was then added into each well to bring the final concentration to 1x. […]

RIPK1 [2] = target: T3, RIPK1 (Homo sapiens, UniProt Q13546); test: RIPK1 degradation in Jurkat cells, Western blotting; assay type: cell-based; details: pre-treatment 4 hours, then LD4172 4 hours
T3 construct: Quantification of RIPK1 levels in Jurkat cells treated with indicated compounds for 24 h; endogenous in cells; host or cells: Jurkat
T3 sequence (Q13546 1-671): T1 sequence (Q13546 1-671)
From the text: (§1) Figure 1 Design and screen of RIPK1 PROTACs. A, Chemical structure and docking modeling of type II inhibitor 1 with the kinase domain of RIPK1 (PDB: 4NEU). The group exposed to solvent region is highlighted with yellow circle. B, Chemical structure and co-crystal structure of type III inhibitor 2 in complex with RIPK1 (PDB: 6R5F). The solventexposed group of inhibitor 2 is highlighted with yellow circle. C, A small library design of RIPK1 PROTACs. Either Type II inhibitor 1 or type III inhibitor 2 is conjugated with various E3 ligase ligands or adamantane tag to generate a small library of RIPK1 PROTACs. D, Quantification of RIPK1 levels in Jurkat cells treated with indicated compounds for 24 h at 0, 0.1, 1 and 10 μM, followed by Western blotting. E, Quantification of D. F, Quantification of RIPK1 levels in both Jurkat and B16F10 cells treated with type II inhibitor-based PROTACs with different linker lengths for 24 h, followed by Western blotting. G, Quantification of F.
(§2) Figure 2 LD4172, a RIPK1 PROTAC, induces potent and highly specific degradation of RIPK1 in a panel of cell lines. […] B, Quantification of RIPK1 levels in both Jurkat and B16F10 cells treated with LD4172 at indicated concentrations for 24 h, followed by Western blotting. […] G, Time-resolved fluorescence resonance energy transfer (TR-FRET) based biochemical binding assay for RIPK1. […]

RIPK1 [3] = target: T4, RIPK1 (Mus musculus, UniProt Q60855); test: RIPK1 degradation in B16F10 mouse melanoma cells, Western blotting; assay type: cell-based; set-up: Quantification of RIPK1 levels in both Jurkat and B16F10 cells; endogenous in cells; host or cells: B16F10; details: pre-treatment 4 hours, then LD4172 4 hours
T4 sequence (Q60855 1-656): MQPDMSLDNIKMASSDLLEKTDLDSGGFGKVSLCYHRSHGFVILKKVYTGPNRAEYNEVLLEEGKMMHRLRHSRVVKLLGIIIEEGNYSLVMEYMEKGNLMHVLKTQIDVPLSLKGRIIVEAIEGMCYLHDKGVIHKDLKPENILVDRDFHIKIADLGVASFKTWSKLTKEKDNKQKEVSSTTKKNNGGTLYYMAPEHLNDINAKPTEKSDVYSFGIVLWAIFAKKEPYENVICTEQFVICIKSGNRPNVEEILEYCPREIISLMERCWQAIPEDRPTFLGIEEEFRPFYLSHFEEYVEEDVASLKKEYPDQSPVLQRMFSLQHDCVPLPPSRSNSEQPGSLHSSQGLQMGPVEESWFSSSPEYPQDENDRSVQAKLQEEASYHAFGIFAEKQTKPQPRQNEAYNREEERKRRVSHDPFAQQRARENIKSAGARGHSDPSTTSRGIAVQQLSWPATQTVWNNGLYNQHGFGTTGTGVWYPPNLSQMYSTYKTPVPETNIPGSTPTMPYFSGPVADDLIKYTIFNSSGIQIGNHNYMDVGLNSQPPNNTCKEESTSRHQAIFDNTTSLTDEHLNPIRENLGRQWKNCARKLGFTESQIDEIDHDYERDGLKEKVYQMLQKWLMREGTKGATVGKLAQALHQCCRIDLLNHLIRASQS
From the text: as §1, §2

Row | SMILES | target engagement (TE) compared with LD4172 [1] | IC50 ([1]; HEK293 cells, tracer 500 nM, n=3, read-out: IC50 (nM), Fig. 2F) [nM] | ternary complex formation, NanoBRET between RIPK1 and VHL (RIPK1 and VHL) | effect on RIPK1 degradation by LD4172 (RIPK1 [2]) | effect on RIPK1 degradation by LD4172 (RIPK1 [3])
1 | Cc1ncsc1-c1ccc([C@H](C)NC(=O)[C@H]2C[C@H](O)CN2C(=O)[C@@H](NC(=O)CCCCCCCCCCC(=O)NCCCn2cc(-c3ccc4c(c3)CCN4C(=O)Cc3cccc(OC(F)(F)F)c3)c3c(N)ncnc32)C(C)(C)C)cc1 [LD4172-NC] | TE similar to that of LD4172 | 1850 | not | – | –
2 | NS(=O)(=O)OC[C@@H]1C[C@@H](n2ccc3c(N[C@H]4CCc5ccccc54)ncnc32)C[C@@H]1O [MLN4924] | – | – | – | reversed | reversed
3 | CC(C)C[C@H](NC(=O)[C@H](CCc1ccccc1)NC(=O)CN1CCOCC1)C(=O)N[C@@H](Cc1ccccc1)C(=O)N[C@@H](CC(C)C)C(=O)[C@@]1(C)CO1 [carfilzomib] | – | – | – | reversed | reversed
